Experimental data as given in US11497212B2, “Substituted thiophenyl uracils, salts thereof and the use thereof as herbicidal agents” (Syngenta Crop Protection AG, priority 2017, dated 2022).

tested on: Abutilon theophrasti; assay: Herbicidal action post-emergence (greenhouse pot trial); format: in vivo; settings: application rate 20 g/ha, scored visually after about 3 weeks vs untreated controls
Description: (§1) Seeds of mono- and dicotyledonous weed plants and crop plants are laid out in sandy loam soil in plastic or wood-fiber pots, covered with earth and grown under controlled growth conditions in a greenhouse. 2 to 3 weeks after sowing, the trial plants are treated at the one-leaf stage. The compounds of the invention formulated in the form of wettable powders (WP) or emulsion concentrates (EC) were then sprayed onto the green parts of the plant as an aqueous suspension or emulsion with addition of 0.5% additive at a water application rate equivalent to 600 L/ha. After the trial plants had stood for about 3 weeks in the greenhouse, under optimal growth conditions, the effect of the preparations was scored visually by comparison with untreated controls. For example, 100% efficacy=plants have died, 0% efficacy=like control plants. Tables A1 to A15 below show the efficacies of selected compounds of the general formula (I) according to tables I.1 to I.60 on various harmful plants and an application rate corresponding to 80 g/ha or lower that were obtained by the aforementioned trial method.

| Compound | Abutilon theophrasti (Efficacy in %) |
| --- | --- |
| CC(Sc1cc(-n2c(=O)cc(C(F)(F)F)n(C)c2=O)c(F)cc1Cl)C(=O)OCCCOCc1ccccc1 (stereo not drawn) [I.1-30] | 100% |
| CC(Sc1cc(-n2c(=O)cc(C(F)(F)F)n(C)c2=O)c(F)cc1Cl)C(=O)OC1CCSC1 (stereo not drawn) [I.1-123] | 100% |
| CCC(Sc1cc(-n2c(=O)cc(C(F)(F)F)n(C)c2=O)c(F)cc1Cl)C(=O)OCC1CCCS1 (stereo not drawn) [I.2-81] | 100% |
| Cn1c(C(F)(F)F)cc(=O)n(-c2cc(SCC(C)(C)C(=O)NCC3CCCO3)c(Cl)cc2F)c1=O (stereo not drawn) [I.48-221] | 100% |

tested on: Amaranthus retroflexus; assay: as above; format: in vivo; settings: application rate 20 g/ha, scored visually after about 3 weeks vs untreated controls
Description: as §1

| Compound | Amaranthus retroflexus (Efficacy in %) |
| --- | --- |
| CC(Sc1cc(-n2c(=O)cc(C(F)(F)F)n(C)c2=O)c(F)cc1Cl)C(=O)OCCCOCc1ccccc1 (stereo not drawn) [I.1-30] | 100% |
| CC(Sc1cc(-n2c(=O)cc(C(F)(F)F)n(C)c2=O)c(F)cc1Cl)C(=O)OC1CCSC1 (stereo not drawn) [I.1-123] | 100% |
| CCC(Sc1cc(-n2c(=O)cc(C(F)(F)F)n(C)c2=O)c(F)cc1Cl)C(=O)OCC1CCCS1 (stereo not drawn) [I.2-81] | 100% |
| Cn1c(C(F)(F)F)cc(=O)n(-c2cc(SCC(C)(C)C(=O)NCC3CCCO3)c(Cl)cc2F)c1=O (stereo not drawn) [I.48-221] | 90% |

tested on: Digitaria sanguinalis; assay: as above; format: in vivo; settings: application rate 20 g/ha
Description: as §1

| Compound | Digitaria sanguinalis (Efficacy in %) |
| --- | --- |
| CC(Sc1cc(-n2c(=O)cc(C(F)(F)F)n(C)c2=O)c(F)cc1Cl)C(=O)OCCCOCc1ccccc1 (stereo not drawn) [I.1-30] | 100% |
| CC(Sc1cc(-n2c(=O)cc(C(F)(F)F)n(C)c2=O)c(F)cc1Cl)C(=O)OC1CCSC1 (stereo not drawn) [I.1-123] | 80% |
| CCC(Sc1cc(-n2c(=O)cc(C(F)(F)F)n(C)c2=O)c(F)cc1Cl)C(=O)OCC1CCCS1 (stereo not drawn) [I.2-81] | 100% |

tested on: Echinochloa crus-galli; assay: as above; format: in vivo; settings: application rate 20 g/ha, scored visually after about 3 weeks vs untreated controls
Description: as §1

| Compound | Echinochloa crus-galli (Efficacy in %) |
| --- | --- |
| CC(Sc1cc(-n2c(=O)cc(C(F)(F)F)n(C)c2=O)c(F)cc1Cl)C(=O)OCCCOCc1ccccc1 (stereo not drawn) [I.1-30] | 100% |
| CC(Sc1cc(-n2c(=O)cc(C(F)(F)F)n(C)c2=O)c(F)cc1Cl)C(=O)OC1CCSC1 (stereo not drawn) [I.1-123] | 100% |
| CCC(Sc1cc(-n2c(=O)cc(C(F)(F)F)n(C)c2=O)c(F)cc1Cl)C(=O)OCC1CCCS1 (stereo not drawn) [I.2-81] | 100% |

tested on: Matricaria inodora; assay: as above; format: in vivo; settings: application rate 20 g/ha, scored visually after about 3 weeks vs untreated controls
Description: as §1

| Compound | Matricaria inodora (Efficacy in %) |
| --- | --- |
| CC(Sc1cc(-n2c(=O)cc(C(F)(F)F)n(C)c2=O)c(F)cc1Cl)C(=O)OCCCOCc1ccccc1 (stereo not drawn) [I.1-30] | 100% |
| CC(Sc1cc(-n2c(=O)cc(C(F)(F)F)n(C)c2=O)c(F)cc1Cl)C(=O)OC1CCSC1 (stereo not drawn) [I.1-123] | 100% |
| CCC(Sc1cc(-n2c(=O)cc(C(F)(F)F)n(C)c2=O)c(F)cc1Cl)C(=O)OCC1CCCS1 (stereo not drawn) [I.2-81] | 100% |
| Cn1c(C(F)(F)F)cc(=O)n(-c2cc(SCC(C)(C)C(=O)NCC3CCCO3)c(Cl)cc2F)c1=O (stereo not drawn) [I.48-221] | 80% |

tested on: Pharbitis purpurea; assay: as above; format: in vivo; settings: application rate 20 g/ha
Description: as §1

| Compound | Pharbitis purpurea (Efficacy in %) |
| --- | --- |
| CC(Sc1cc(-n2c(=O)cc(C(F)(F)F)n(C)c2=O)c(F)cc1Cl)C(=O)OCCCOCc1ccccc1 (stereo not drawn) [I.1-30] | 100% |
| CC(Sc1cc(-n2c(=O)cc(C(F)(F)F)n(C)c2=O)c(F)cc1Cl)C(=O)OC1CCSC1 (stereo not drawn) [I.1-123] | 100% |
| CCC(Sc1cc(-n2c(=O)cc(C(F)(F)F)n(C)c2=O)c(F)cc1Cl)C(=O)OCC1CCCS1 (stereo not drawn) [I.2-81] | 100% |

tested on: Polygonum convolvulus; assay: as above; format: in vivo; settings: application rate 20 g/ha, scored visually after about 3 weeks vs untreated controls
Description: as §1

| Compound | Polygonum convolvulus (Efficacy in %) |
| --- | --- |
| CC(Sc1cc(-n2c(=O)cc(C(F)(F)F)n(C)c2=O)c(F)cc1Cl)C(=O)OCCCOCc1ccccc1 (stereo not drawn) [I.1-30] | 100% |
| CC(Sc1cc(-n2c(=O)cc(C(F)(F)F)n(C)c2=O)c(F)cc1Cl)C(=O)OC1CCSC1 (stereo not drawn) [I.1-123] | 100% |
| CCC(Sc1cc(-n2c(=O)cc(C(F)(F)F)n(C)c2=O)c(F)cc1Cl)C(=O)OCC1CCCS1 (stereo not drawn) [I.2-81] | 100% |

tested on: Setaria viridis; assay: as above; format: in vivo; settings: application rate 20 g/ha, scored visually after about 3 weeks vs untreated controls
Description: as §1

| Compound | Setaria viridis (Efficacy in %) |
| --- | --- |
| CC(Sc1cc(-n2c(=O)cc(C(F)(F)F)n(C)c2=O)c(F)cc1Cl)C(=O)OCCCOCc1ccccc1 (stereo not drawn) [I.1-30] | 100% |
| CC(Sc1cc(-n2c(=O)cc(C(F)(F)F)n(C)c2=O)c(F)cc1Cl)C(=O)OC1CCSC1 (stereo not drawn) [I.1-123] | 100% |
| CCC(Sc1cc(-n2c(=O)cc(C(F)(F)F)n(C)c2=O)c(F)cc1Cl)C(=O)OCC1CCCS1 (stereo not drawn) [I.2-81] | 100% |

tested on: Stellaria media; assay: as above; format: in vivo; settings: application rate 20 g/ha, scored visually after about 3 weeks vs untreated controls
Description: as §1

| Compound | Stellaria media (Efficacy in %) |
| --- | --- |
| CC(Sc1cc(-n2c(=O)cc(C(F)(F)F)n(C)c2=O)c(F)cc1Cl)C(=O)OCCCOCc1ccccc1 (stereo not drawn) [I.1-30] | 90% |
| CC(Sc1cc(-n2c(=O)cc(C(F)(F)F)n(C)c2=O)c(F)cc1Cl)C(=O)OC1CCSC1 (stereo not drawn) [I.1-123] | 100% |
| CCC(Sc1cc(-n2c(=O)cc(C(F)(F)F)n(C)c2=O)c(F)cc1Cl)C(=O)OCC1CCCS1 (stereo not drawn) [I.2-81] | 100% |
| Cn1c(C(F)(F)F)cc(=O)n(-c2cc(SCC(C)(C)C(=O)NCC3CCCO3)c(Cl)cc2F)c1=O (stereo not drawn) [I.48-221] | 100% |

tested on: Veronica persica; assay: as above; format: in vivo; settings: application rate 20 g/ha
Description: as §1

| Compound | Veronica persica (Efficacy in %) |
| --- | --- |
| CC(Sc1cc(-n2c(=O)cc(C(F)(F)F)n(C)c2=O)c(F)cc1Cl)C(=O)OCCCOCc1ccccc1 (stereo not drawn) [I.1-30] | 100% |
| CC(Sc1cc(-n2c(=O)cc(C(F)(F)F)n(C)c2=O)c(F)cc1Cl)C(=O)OC1CCSC1 (stereo not drawn) [I.1-123] | 100% |
| CCC(Sc1cc(-n2c(=O)cc(C(F)(F)F)n(C)c2=O)c(F)cc1Cl)C(=O)OCC1CCCS1 (stereo not drawn) [I.2-81] | 100% |
| Cn1c(C(F)(F)F)cc(=O)n(-c2cc(SCC(C)(C)C(=O)NCC3CCCO3)c(Cl)cc2F)c1=O (stereo not drawn) [I.48-221] | 100% |

tested on: Viola tricolor; assay: as above; format: in vivo; settings: application rate 20 g/ha
Description: as §1

| Compound | Viola tricolor (Efficacy in %) |
| --- | --- |
| CC(Sc1cc(-n2c(=O)cc(C(F)(F)F)n(C)c2=O)c(F)cc1Cl)C(=O)OCCCOCc1ccccc1 (stereo not drawn) [I.1-30] | 100% |
| CC(Sc1cc(-n2c(=O)cc(C(F)(F)F)n(C)c2=O)c(F)cc1Cl)C(=O)OC1CCSC1 (stereo not drawn) [I.1-123] | 100% |
| CCC(Sc1cc(-n2c(=O)cc(C(F)(F)F)n(C)c2=O)c(F)cc1Cl)C(=O)OCC1CCCS1 (stereo not drawn) [I.2-81] | 100% |
| Cn1c(C(F)(F)F)cc(=O)n(-c2cc(SCC(C)(C)C(=O)NCC3CCCO3)c(Cl)cc2F)c1=O (stereo not drawn) [I.48-221] | 100% |

tested on: Oryza sativa; assay: Crop compatibility post-emergence (greenhouse pot trial); format: in vivo; settings: application rate 20 g/ha
Description: as §1, with “plants.” for “plants. Tables A1 to A15 below show the efficacies of selected compounds of the general formula (I) according to tables I.1 to I.60 on various harmful plants and an application rate corresponding to 80 g/ha or lower that were obtained by the aforementioned trial method.”
(§2) Crop plant compatibilities were also scored correspondingly.
(§3) The effects observed are reported here on selected crop plants by comparison with the untreated controls (values in %).

| Oryza sativa (Efficacy in %) | Compound |
| --- | --- |
| 0% | CC(Sc1cc(-n2c(=O)cc(C(F)(F)F)n(C)c2=O)c(F)cc1Cl)C(=O)OCCCOCc1ccccc1 (stereo not drawn) [I.1-30] |
| 10% | Cn1c(C(F)(F)F)cc(=O)n(-c2cc(SCC(C)(C)C(=O)NCC3CCCO3)c(Cl)cc2F)c1=O (stereo not drawn) [I.48-221] |

tested on: Triticum aestivum; assay: as above; format: in vivo; settings: application rate 20 g/ha
Description: as §1, with “plants.” for “plants. Tables A1 to A15 below show the efficacies of selected compounds of the general formula (I) according to tables I.1 to I.60 on various harmful plants and an application rate corresponding to 80 g/ha or lower that were obtained by the aforementioned trial method.”
as §2, §3

| Triticum aestivum (Efficacy in %) | Compound |
| --- | --- |
| 20% | CC(Sc1cc(-n2c(=O)cc(C(F)(F)F)n(C)c2=O)c(F)cc1Cl)C(=O)OCCCOCc1ccccc1 (stereo not drawn) [I.1-30] |
| 20% | CC(Sc1cc(-n2c(=O)cc(C(F)(F)F)n(C)c2=O)c(F)cc1Cl)C(=O)OC1CCSC1 (stereo not drawn) [I.1-123] |
| 20% | CCC(Sc1cc(-n2c(=O)cc(C(F)(F)F)n(C)c2=O)c(F)cc1Cl)C(=O)OCC1CCCS1 (stereo not drawn) [I.2-81] |

tested on: Zea mays; assay: as above; format: in vivo; settings: application rate 80 g/ha
Description: as §1, with “plants.” for “plants. Tables A1 to A15 below show the efficacies of selected compounds of the general formula (I) according to tables I.1 to I.60 on various harmful plants and an application rate corresponding to 80 g/ha or lower that were obtained by the aforementioned trial method.”
as §2, §3

| Zea mays (Efficacy in %) | Compound |
| --- | --- |
| 20% | Cn1c(C(F)(F)F)cc(=O)n(-c2cc(SCC(C)(C)C(=O)NCC3CCCO3)c(Cl)cc2F)c1=O (stereo not drawn) [I.48-221] |
